According to patent US6846641B2, “In vitro ischemia model” (AGY Therapeutics, Inc., priority 2002, dated 2005):
Structures can show the parent of a compound that is named as a salt.

Key:
[1] = system: CA1 region of mouse hippocampal organotypic tissue cultures; test: Oxygen and glucose deprivation (OGD) in iCSF, propidium iodide uptake in mouse hippocampal organotypic cultures; format: cell-based; conditions: 24 hours of recovery
CA1 cells = conditions: given after the ischemic insult; cited from earlier work

| SMILES | protective effect (damage in CA1 versus OGD-controls) ([1]; 150 μM, one hour before OGD, in iCSF during 15-minute OGD and throughout recovery) [%] | protective effect against 15-minute-OGD in iCSF (PI-intensity in the CA1-area) ([1]; 150 μM, p<0.0001, n=18-24) | less damage in the CA1 region compared to matched OGD-control cultures ([1]; 20 μM, pretreatment one hour before 15-minute OGD in iCSF) [%] | protection of CA1 cells (CA1 cells) |
| --- | --- | --- | --- | --- |
| N[C@H](CCCP(=O)(O)O)C(=O)O [D-AP5, D-2 amino-5-phosphonopentanoic-acid] | 70 | significant | – | – |
| C[C@]12N[C@H](Cc3ccccc31)c1ccccc12 [MK-801, dizocilpine maleate] | – | – | 90 | protected CA1 cells |
